The text below walks through data of US5015639A, “Substituted benzazepines, their preparation and pharmaceutical compositions containing them” (Schering Corporation, priority 1989, dated 1991).

pKi: −log10 of the molar value. Like-named read-outs stand apart in the source and are kept apart here. Where only a bound is given, the exact number is not on record here.

One test concerns the target T1, D-2 receptor (Rattus norvegicus, UniProt P61169).
T1 construct: Striatal tissue was excised, pooled, and homogenized; tissue Charles River Breeding Laboratories, Mass; (animals); host or cells: striatum of male Sprague-Dawley rats, washed membrane pellet
The experiment in a line: Competitive inhibition assay vs. 3H-spiperone (D-2 receptor binding). On the set-up: species or system Male Sprague-Dawley rat (striatal tissue). The conditions noted are these: rat striatal homogenate, 0.2 nM 3H-spiperone, pH 7.4, 37° C., 15 min. On the procedure: (§1) Many compounds capable of effecting reproducible physiological changes in neural tissues are believed to operate by binding at one or more receptor sites.
(§2) Tritiated SCH 23390 and tritiated spiperone (a potent D-2 ligand) were obtained as described in the Billard et al. reference supra and serially diluted in 0.05 M Tris buffer, pH 7.4, as required. A compound of the invention is diluted in 0.05 M Tris buffer, pH 7.4, as required.
(§3) Male Sprague-Dawley rats (200 to 250 g) from Charles River Breeding Laboratories, Mass. were used to obtain brain tissue. The rats were humanely sacrificed and their brains removed and placed on ice. Striatal tissue was excised, pooled, and homogenized (Brinkman Polytron, 10 sec) in 100 volumes (w/v) of ice cold 50 mM Tris buffer, pH 7.4 (at 25° C.). The homogenate was centrifuged at 20,000 xg for 10 min. The resultant pellet was rehomogenized in Tris buffer and centrifuged again. The final pellet was resuspended in 50 mM Tris buffer pH 7.4 containing 120 mM NaCl, 5 mM KCl, 2 mM CaCl2, and 1 mM MgCl2.
(§4) Polypropylene incubation tubes received 100 μl of the individual test compounds at various concentrations dissolved or suspended in 0.05 M Tris, pH 7.4 containing 4 mg/ml methylcellulose, 100 μl of a solution of ^3 H-SCH 23390 in Tris buffer (final reaction mixture concentration =0.3 nM) or 100 μl of a solution of 3H-spiperone in Tris buffer (final concentration =0.2 nM) and 800 μl of tissue suspension (ca. 3 mg/assay). Tubes were incubated at 37° C. for 15 minutes and rapidly vacuum filtered through Whatman GF/B filters and rinsed 4 times with 4 ml of ice cold 50 mM Tris buffer, pH 7.4. The filters were transferred to scintillation vials, equilibated with 10 ml of scintillant (Scintosol, Isolab, Inc.) for 16 hours at 25° C. and the radioactivity determined in a liquid scintillation counter. Ki values were determined as described by Billard et al. using the relationship Ki =IC50 /(1+([L]/KD)) wherein IC50 =concentration of test drug necessary to displace 50% of specifically bound ^3 H-Sch 23390, [L]=concentration of radioligand used in the assay, and KD =dissociation constant.

The next test concerns the target T2, dopamine D-1 receptor (Rattus norvegicus, UniProt P18901).
T2 construct: Striatal tissue was excised, pooled, and homogenized; tissue Charles River Breeding Laboratories, Mass; (animals); host or cells: striatum of male Sprague-Dawley rats, washed membrane pellet
Description: Competitive inhibition assay vs. 3H-SCH 23390 (dopamine D-1 receptor binding). Details: species or system Male Sprague-Dawley rat (striatal tissue). On the procedure: as §1, §2, §3, §4

Test [1] has as its system conditioned avoidance response (CAR). Description: Conditioned avoidance suppression in rats (Rat CAR). The format is in vivo. Conditions: lowest dose that significantly (P<0.05) reduced avoidance responding, read-out: Rat CAR, minimal effective dose (MED). On the procedure:
N. Y. Acad. Sci. 66, 740 (1957)}. A series of experiments was carried out to assess the ability of the compounds of this invention to suppress the conditioned avoidance response (CAR) in rats.
Rats were required to jump onto a platform located 6.75 inches (17.15 cm) above the grid floor of an experimental chamber in response to a 5-second tone to avoid a 10-second foot shock (0.6 ma). Each experimental session consisted of 20 such trials presented at 30-second intervals. A correct CAR is scored whenever the rat jumps onto the platform during the tone (prior to foot shock). An escape response is scored when the rat jumps onto the platform during a shock. A response failure is defined as the lack of an escape response during the 10-second shock period.
Groups of 6-8 rats were trained in two consecutive days (total of 40 trials). Rats that reached criterion on day 2 (correct CARs on 16 or more of the 20 trials) were treated with either a test drug or vehicle on day 3. Suppression of CAR was analyzed statistically using Student's t-test comparing the performances of drug-treated to vehicle-treated rats.

[2] abbreviates: rat striatal homogenate, 0.3 nM 3H-SCH 23390, pH 7.4, 37° C., 15 min, read-out: Ki vs. 3H-SCH 23390.

T1 sequence (P61169 whole entry): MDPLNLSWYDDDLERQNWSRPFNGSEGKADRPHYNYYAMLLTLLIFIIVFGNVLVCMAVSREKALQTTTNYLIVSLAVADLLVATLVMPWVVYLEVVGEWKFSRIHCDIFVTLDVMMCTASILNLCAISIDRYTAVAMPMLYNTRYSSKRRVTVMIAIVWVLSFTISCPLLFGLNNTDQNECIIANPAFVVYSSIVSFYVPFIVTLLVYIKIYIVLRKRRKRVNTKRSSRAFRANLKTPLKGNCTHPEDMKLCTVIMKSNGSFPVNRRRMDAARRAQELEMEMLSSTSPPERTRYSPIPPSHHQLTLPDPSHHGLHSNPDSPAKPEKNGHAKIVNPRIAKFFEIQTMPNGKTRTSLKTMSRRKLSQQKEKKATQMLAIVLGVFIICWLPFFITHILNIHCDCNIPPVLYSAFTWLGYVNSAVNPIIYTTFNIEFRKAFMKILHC
T2 sequence (P18901 whole entry): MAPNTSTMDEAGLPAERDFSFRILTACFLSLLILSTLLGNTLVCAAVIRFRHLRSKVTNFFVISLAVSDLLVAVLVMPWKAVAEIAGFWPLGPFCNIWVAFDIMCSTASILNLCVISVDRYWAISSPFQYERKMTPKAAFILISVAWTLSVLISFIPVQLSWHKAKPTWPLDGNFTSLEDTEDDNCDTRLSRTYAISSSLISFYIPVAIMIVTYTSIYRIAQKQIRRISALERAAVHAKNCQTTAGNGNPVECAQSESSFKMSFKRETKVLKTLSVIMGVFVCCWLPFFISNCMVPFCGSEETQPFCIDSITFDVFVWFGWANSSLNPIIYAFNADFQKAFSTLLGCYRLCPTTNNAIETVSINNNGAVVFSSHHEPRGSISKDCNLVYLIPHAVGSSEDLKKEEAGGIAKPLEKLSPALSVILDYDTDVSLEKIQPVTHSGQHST

`CCSC1CN(C)CCc2cc(Cl)c(O)cc21` (stereo not drawn) [HO CH3 SC2 H5 H, 8-chloro-5-ethylthio-3-methyl-2,3,4,5-tetrahydro-lH-3-benzazepine-7-ol]: the negative-log Ki (pKi) at D-2 receptor was 5.58; at dopamine D-1 receptor (setting [2]) it was 7.48.

Consider `CC(=O)Oc1cc2c(cc1Cl)CCN(C)CC2CC=C(C)C` (stereo not drawn) [Compound 19, 8-chloro-7-acetoxy-5-(3-methyl-2-butenyl)-3-methyl-2,3,4,5-tetrahydro-lH-3-benzazepine], for which the pKi on D-2 receptor is 6.02; on dopamine D-1 receptor (setting [2]), 7.77. The figures for the minimal effective dose in test [1] (po) and in test [1] (sc) were greater than 30 mg/kg and less than 1 mg/kg, respectively.

Take `C=CCC1CN(C)CCc2cc(Cl)c(OCOC(=O)C(C)(C)C)cc21` (stereo not drawn) [Compound 20, 8-chloro-7-(t-butyryloxy-methoxy)-5-allyl-3-methyl-2,3,4,5-tetrahydro-lH-3-benzazepine]: the negative-log Ki (pKi) is 5.58 at D-2 receptor and 6.62 on dopamine D-1 receptor (setting [2]). Besides, the minimal effective dose in test [1] (po) was greater than 30 mg/kg; in test [1] (sc) it was 0.1 mg/kg.

In the case of `CN1CCc2cc(Cl)c(O)cc2C(C2CCCCC2)C1` (stereo not drawn) [Compound 8, 8-chloro-5-cyclohexyl-3-methyl-2,3,4,5-tetrahydro-lH-3-benzazepine-7-ol], the pKi was 6.24 on D-2 receptor and 8.00 on dopamine D-1 receptor (setting [2]). Moreover, the minimal effective dose in test [1] (po) is 30 mg/kg; in test [1] (sc), no more than 1 mg/kg.

As to `CN1CCc2cc(Cl)c(O)cc2C(Sc2ccccc2)C1` (stereo not drawn) [Compound 5, 8-chloro-3-methyl-5-phenylthio-2,3,4,5-tetrahydro-lH-3-benzazepin-7-ol], the negative logarithm of the Ki (pKi) on D-2 receptor is 6.40; at dopamine D-1 receptor (setting [2]) it was 7.48. The minimal effective dose in test [1] (po) and in test [1] (sc) was greater than 30 mg/kg throughout.

Regarding `C=CCC1CN(C)CCc2cc(Cl)c(O)cc21` (stereo not drawn) [Compound 14, 8-chloro-5-allyl-3-methyl-2,3,4,5-tetrahydro-lH-3-benzazepine-7-ol], the figures for the negative-log Ki (pKi) on D-2 receptor and at dopamine D-1 receptor (setting [2]) were 6.77 and 8.22, respectively. Also, the minimal effective dose was greater than 30 mg/kg in test [1] (po) and 0.1 mg/kg in test [1] (sc).

For the compound `CCOC(=O)Oc1cc2c(cc1Cl)CCN(C)CC2C1CCCCC1` (stereo not drawn) [Compound 16, 8-chloro-7-(ethoxy-formyloxy)-5-cyclohexyl-3-methyl-2,3,4,5-tetrahydro-lH-3-benzazepine], the pKi at D-2 receptor is 5.48; at dopamine D-1 receptor (setting [2]), 6.88. In addition, the minimal effective dose is greater than 30 mg/kg in test [1] (po) and less than 3 mg/kg in test [1] (sc).

Regarding `CN1CCc2cc(Cl)c(O)cc2C(OC2CCCCC2)C1` (stereo not drawn) [HO CH3 cyclohexyloxy H, 8-chloro-5-cyclohexyloxy-3-methyl-2,3,4,5-tetrahydro-lH-3-benzazepine-7-ol], the pKi at D-2 receptor is 5.00; at dopamine D-1 receptor (setting [2]), 7.42.

Turning to `CN1CCc2cc(Cl)c(O)cc2C(C2CCCC2)C1` (stereo not drawn) [Compound 12], the pKi at D-2 receptor is 5.81; at dopamine D-1 receptor (setting [2]) it was 7.68. Also, the minimal effective dose in test [1] (po) is greater than 30 mg/kg; in test [1] (sc) it was 1 mg/kg.

Take `CN1CCc2cc(Cl)c(O)cc2C(n2cccc2)C1` (stereo not drawn) [Compound 13, 8-chloro-5-(1-pyrrolyl)-3-methyl-2,3,4,5-tetrahydro-lH-3-benzazepine-7-ol]: the results for the pKi at D-2 receptor and at dopamine D-1 receptor (setting [2]) were 4.79 and 7.96, respectively. Moreover, the values for the minimal effective dose in test [1] (po) and in test [1] (sc) were greater than 30 mg/kg and 0.3 mg/kg, respectively.

For the compound `CN(C)CCCC1CN(C)CCc2cc(Cl)c(O)cc21` (stereo not drawn) [HO CH3 (CH2)3 N(CH3)2 H, 8-chloro-5-(N,N-dimethylaminopropyl)-3-methyl-2,3,4,5-tetrahydro-lH-3-benzazepine-7-ol], the figures for the negative-log Ki (pKi) at D-2 receptor and at dopamine D-1 receptor (setting [2]) were less than 4.00 and 5.96, respectively.

On to `COC1CN(C)CCc2cc(Cl)c(O)cc21` (stereo not drawn) [Compound 1, 8-chloro-5-methoxy-3-methyl-2,3,4,5-tetrahydro-lH-3-benzazepine-7-ol], for which the pKi is 5.25 at D-2 receptor and 7.27 on dopamine D-1 receptor. In addition, the minimal effective dose was greater than 30 mg/kg in test [1] (po) and 1 mg/kg in test [1] (sc).

As to `C=CCC1CN(C)CCc2cc(Cl)c(OC(=O)C(C)C)cc21` (stereo not drawn) [Compound 17, 8-chloro-7-(isopropyl-formyloxy)-5-allyl-3-methyl-2,3,4,5-tetrahydro-lH-3-benzazepine], the figures for the pKi at D-2 receptor and on dopamine D-1 receptor (setting [2]) were 5.46 and 7.08, respectively. In addition, the minimal effective dose was greater than 30 mg/kg in test [1] (po) and 0.3 mg/kg in test [1] (sc).

For `CN1CCc2cc(Cl)c(O)cc2C2(CCCC2)C1` [Compound 15, 8-chloro-7-hydroxy-3-methyl-2,3,4,5-tetrahydrospiro[lH-3-benzazepine-5,5'-cyclopentane]], the negative-log Ki (pKi) at D-2 receptor was 6.07; at dopamine D-1 receptor it was 7.72. Further, the minimal effective dose is greater than 30 mg/kg in test [1] (po) and 1 mg/kg in test [1] (sc).

For the compound `CN1CCc2cc(Cl)c(O)cc2C(Oc2ccccc2)C1` (stereo not drawn) [Compound 4, 8-chloro-3-methyl-5-phenoxy-2,3,4,5-tetrahydro-lH-3-benzazepin-7-ol], the negative logarithm of the Ki (pKi) on D-2 receptor was 6.21; on dopamine D-1 receptor (setting [2]) it was 7.08. Further, the minimal effective dose in test [1] (po) was 10 mg/kg.

For the compound `CCSC1CNCCc2cc(Cl)c(O)cc21` (stereo not drawn) [Compound 3], the pKi at D-2 receptor is 5.19; at dopamine D-1 receptor (setting [2]), 6.42. Also, the minimal effective dose in test [1] (sc) was less than 10 mg/kg.

Turning to `CN1CCc2cc(Cl)c(O)cc2C(OCCc2ccccc2)C1` (stereo not drawn) [Compound 11, 8-chloro-5-(phenethyloxy)-3-methyl-2,3,4,5-tetrahydro-lH-3-benzazepine-7-ol], the negative-log Ki (pKi) on D-2 receptor is 5.99; at dopamine D-1 receptor (setting [2]), 8.10. For the same compound, the results for the minimal effective dose in test [1] (po) and in test [1] (sc) were greater than 30 mg/kg and 1 mg/kg, respectively.

As to `CN1CCc2cc(Cl)c(O)cc2C(OCC(F)(F)F)C1` (stereo not drawn) [Compound 9, 8-chloro-5-(2,2,2-trifluoroethoxy)-3-methyl-2,3,4,5-tetrahydro-lH-3-benzazepine-7-ol], the values for the pKi at D-2 receptor and at dopamine D-1 receptor (setting [2]) were 4.83 and 7.23, respectively. In addition, the minimal effective dose was greater than 30 mg/kg in test [1] (po) and 1 mg/kg in test [1] (sc).

Take `CN1CCc2cc(Cl)c(O)cc2C(C2C=CCCC2)C1` (stereo not drawn) [HO CH3 2-cyclohexenyl H, 8-chloro-5-(2-cyclohexenyl)-3-methyl-2,3,4,5-tetrahydro-lH-3-benzazepine-7-ol]: the pKi at D-2 receptor was 6.87; on dopamine D-1 receptor (setting [2]), 8.96.

Consider `CN1CCc2cc(Cl)c(O)cc2C(N2CCCCC2)C1` (stereo not drawn) [Compound 6, 8-chloro-3-methyl-5-(1-piperidinyl)-2,3,4,5-tetrahydro-lH-3-benzazepine-7-ol], for which the pKi on D-2 receptor is 5.12; at dopamine D-1 receptor (setting [2]), 7.19. The minimal effective dose is 30 mg/kg in test [1] (po) and 3 mg/kg in test [1] (sc).

As for `CN1CCc2cc(Cl)c(O)cc2C(OCc2ccccc2)C1` (stereo not drawn) [Compound 10, 8-chloro-5-benzyloxy-3-methyl-2,3,4,5-tetrahydro-lH-3-benzazepine-7-ol], the pKi was 5.64 on D-2 receptor and 7.52 at dopamine D-1 receptor (setting [2]). Also, the minimal effective dose was greater than 30 mg/kg in test [1] (po) and 3 mg/kg in test [1] (sc).

For `CN1CCc2cc(Cl)c(O)cc2C(=Cc2ccccc2)C1` [HO CH3 CHPh], the pKi on D-2 receptor is 6.15; on dopamine D-1 receptor (setting [2]), 7.14.

For the compound `CN1CCc2cc(Cl)c(O)cc2C(n2ccnc2)C1` (stereo not drawn) [Compound 7], the minimal effective dose in test [1] (po) is greater than 30 mg/kg; in test [1] (sc), greater than 10 mg/kg.
